Measured values reported in patent publication US10717946B2, “Water soluble essential oils and their use” (KIMBERLY-CLARK WORLDWIDE, INC., priority 2012, dated 2020).
Where two headings read alike, the source gives them in different places.

Test system: C. albicans SC5314
Type: cell-based, Candida albicans
Method: Based on the results in FIG. 3, single cell suspensions of SC5314 was prepared as follows. Stock culture of C. albicans SC5314 was streaked onto YPD agar (YPDA) and incubated at 30° C. overnight. Single colonies were subcultured in YPD broth (YPDB) and incubated at 30° C., 200 rpm overnight. Overnight culture in YPDB was subcultured in YPD broth again and incubated at 30° C., 200 rpm 48 h. Cells were collected by centrifugation (4000 g 10 min) at 4° C., washed three times with sterile water, and then resuspended in sterile water at a final concentration of 10^9 colony-forming unit/ml (cfu/ml). The suspension was stored at 4° C. at least 1 d, then subcultured into YPDB to a final concentration of 10^6 cfu/ml. After 48 h incubation, cell suspension was examined under the microscope for single cell percentage. When the single cell percentage exceeded 80%, cells were collected and washed three times with water, then resuspended in water to a final concentration of 10^9 cfu/ml, and stored at 4° C. for no more than a month.
Two approaches were taken to determine the percentage of cells with germ tubes formed (GTF %). One way was to count the total cells at the start of incubation, and count the ungerminated cells after incubation, then calculate the GTF % as (1−ungerminated cells/total cells at 0 h)*100. Another way was to store the samples at 15° C. for 20 h after incubation, then count the germinated cells and total cells after disaggregation, then calculated the GTF % as (germinated cells/total cells after storage)*100. […] Therefore, for practical purposes, the GTF % was determined by the first method, that is, GTF %=(1−ungerminated cells/total cells at 0 h)*100, for the in vitro screening discussed herein.
A screening medium, containing 11 mM imidazole buffer, 3 m MMgSO4, and 2.6 mM N-acetyl-D-glucosamine (GlcNAc) has been used to study the effect of farnesol analogs on the germ tube formation of C. albicans. Here, the germ tube formation of C. albicans in modified screening media was assessed with various concentrations of imidazole buffer (10 mM, 30 mM, and 50 mM) and MgSO4 (0.5 mM, 1.5 mM, and 3 mM). […] It took 2 h to 3 h for the GTF % to reach above 80%. For practical purposes, the screening medium, containing 11 mM imidazole buffer, 0.5 m MMgSO4, and 2.6 mM N-acetyl-D-glucosamine (GlcNAc) was adopted for in vitro screening the quorum sensing inhibitory effect of farnesol compounds and botanicals. […]

C=CCCCCCCCC [1-Decene]
GTF %control-GTF %sample (mean ± SD, n = 3) (0.1%): 0%
GTF %control-GTF %sample (mean ± SD, n = 3) (0.2%): 35.2 ± 5.2 %

CC(C)=CCCC(C)=CCCC(C)=CCO [farnesol]
GTF %control-GTF %sample (mean ± SD, n = 3) ((0.0022%)): 25.0 ± 4.1%

Cc1ccc(C(C)C)c(O)c1 [Thymol]
GTF % (mean ± SEM, n = 3) (1 mM): 43.7 ± 5.2%
